The values that follow come from PubChem BioAssay (NCI).

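Tested at 5 concentrations; 48 h exposure; 96-well plates; endpoints linearly interpolated, else capped at highest concentration. TGI denotes the concentration required for complete inhibition of growth.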 Bounds are passed on as bounds.

Some test systems named below: UACC-62 melanoma; HT29 colon; SK-MEL-2 melanoma; A549 NSCLC; M14 melanoma; IGROV1 ovarian; ACHN renal; HOP-92 NSCLC; MOLT-4 leukemia; T-47D breast.
Holding throughout (test): DTP human tumour cell line panel, 48 h

For the compound `Cc1cc(=O)[nH]c(NNC(C#N)c2ccc(N(C)C)cc2)n1` (configuration not stated), the TGI in the assay with UACC-62 melanoma, with HT29 colon, in the assay with SK-MEL-2 melanoma, in the assay on A549 NSCLC, with M14 melanoma and with IGROV1 ovarian was over 100 µM throughout. Besides, the total growth inhibition concentration (TGI) with ACHN renal and in the assay on HOP-92 NSCLC was over 100 µM each time.
As to `O=C1NC2OC(CO)C(O)C(O)C2O1` (configuration not stated), the concentration for total growth inhibition (TGI) in the assay on UACC-62 melanoma, in the assay on HT29 colon, in the assay on SK-MEL-2 melanoma, with A549 NSCLC, in the assay on MOLT-4 leukemia and in the assay on M14 melanoma was over 100 µM in each case. Further, the TGI in the assay on IGROV1 ovarian, in the assay on ACHN renal and in the assay on HOP-92 NSCLC was over 100 µM in each case.
With `c1ccc(Sc2nc(Sc3ccccc3)nc(Sc3ccccc3)n2)cc1`, the TGI in the assay on UACC-62 melanoma, with HT29 colon, in the assay on SK-MEL-2 melanoma, in the assay with A549 NSCLC, in the assay on MOLT-4 leukemia and in the assay with M14 melanoma was over 100 µM each time. For the same compound, the TGI (in general, the concentration at which net growth stops) was 45 µM in the assay with T-47D breast and over 100 µM in the assay with ACHN renal.
Take `COc1ccc(N2C(=O)C(=O)C3(CCCCC3)C2=O)c(OC)c1OC`: the TGI in the assay on UACC-62 melanoma, with HT29 colon, with A549 NSCLC, in the assay with MOLT-4 leukemia, with M14 melanoma and with T-47D breast was over 100 µM each time. Also, the TGI in the assay on ACHN renal is over 100 µM.
Consider `COc1ccc(N2C(=O)C3C=CC(n4[nH]c(=O)n(Cc5ccccc5)c4=O)CC3C2=O)cc1` (configuration not stated), for which the total growth inhibition concentration (TGI) in the assay on UACC-62 melanoma, in the assay on HT29 colon, with SK-MEL-2 melanoma, in the assay on A549 NSCLC, in the assay on MOLT-4 leukemia and with M14 melanoma was over 100 µM throughout. Further, the concentration for total growth inhibition (TGI) in the assay on IGROV1 ovarian, with ACHN renal and in the assay with HOP-92 NSCLC was over 100 µM throughout.
Turning to `CCOP(=O)(OCC)C(C)(CC)/N=C(\N)NC#N` (configuration not stated), the TGI with UACC-62 melanoma, in the assay on HT29 colon, with SK-MEL-2 melanoma, in the assay on A549 NSCLC, with MOLT-4 leukemia and with M14 melanoma was over 100 µM in each case. Besides, the TGI in the assay with IGROV1 ovarian, in the assay on T-47D breast and with ACHN renal was over 100 µM throughout.
As to `COc1ccc(/C=C(\C2=NC(=O)CS2)c2nc3ccccc3[nH]2)cc1`, the TGI with UACC-62 melanoma was over 100 µM; in the assay with HT29 colon it was over 100 µM; in the assay with SK-MEL-2 melanoma, 62.9 µM; with A549 NSCLC it was over 100 µM; with MOLT-4 leukemia it was over 100 µM; with M14 melanoma, over 100 µM. Besides, the total growth inhibition concentration (TGI) in the assay with IGROV1 ovarian, in the assay on ACHN renal and in the assay with HOP-92 NSCLC was over 100 µM in each case.
With `CCOC(=O)C1=C(O)c2ccc(OC)cc2C(=O)C1=O`, the TGI in the assay with UACC-62 melanoma, with HT29 colon, with SK-MEL-2 melanoma, in the assay on A549 NSCLC, in the assay on MOLT-4 leukemia and in the assay on M14 melanoma was over 100 µM throughout. Also, the TGI in the assay with IGROV1 ovarian, with ACHN renal and in the assay with HOP-92 NSCLC was over 100 µM throughout.
In the case of `COC(=O)C1CCCN1C(=O)OC(C)(C)C` (configuration not stated), the TGI with UACC-62 melanoma, in the assay on HT29 colon, in the assay on SK-MEL-2 melanoma, in the assay on A549 NSCLC, with MOLT-4 leukemia and with IGROV1 ovarian was over 100 µM each time. For the same compound, the concentration for total growth inhibition (TGI) in the assay with T-47D breast and in the assay on ACHN renal was over 100 µM each time.
On to `CN(C)C1(c2cc3ccccc3s2)CCCCC1`, for which the concentration for total growth inhibition (TGI) with UACC-62 melanoma is 60.6 µM; with HT29 colon, over 100 µM; with SK-MEL-2 melanoma, 47.7 µM; with A549 NSCLC it was over 100 µM; in the assay with MOLT-4 leukemia it was over 100 µM; with M14 melanoma, 35.7 µM. Besides, the TGI in the assay on IGROV1 ovarian is over 100 µM; in the assay on ACHN renal, over 100 µM; in the assay on HOP-92 NSCLC, 63.6 µM.
For `COc1cccc2c1C(=O)c1c(O)c3c(c(O)c1C2=O)CC(O)(C(C)=O)CC3O` (configuration not stated), the total growth inhibition concentration (TGI) amounted to 14.4 µM with UACC-62 melanoma; 36.4 µM in the assay on HT29 colon; 16.9 µM in the assay with SK-MEL-2 melanoma; 23.4 µM in the assay with A549 NSCLC; 11.3 µM in the assay with MOLT-4 leukemia; 29.7 µM in the assay on IGROV1 ovarian. The TGI in the assay on HOP-92 NSCLC was 28.9 µM.
Turning to `O=P(Nc1cccc(Cl)c1)(Oc1ccccc1)N(CCCl)CCCl` (configuration not stated), the concentration for total growth inhibition (TGI) was 24.4 µM with UACC-62 melanoma; 28.4 µM in the assay on HT29 colon; 25.6 µM in the assay with SK-MEL-2 melanoma; 29.2 µM in the assay on A549 NSCLC; over 100 µM in the assay on MOLT-4 leukemia; 28.6 µM in the assay with M14 melanoma. Further, the TGI in the assay on IGROV1 ovarian was 30.4 µM; in the assay with ACHN renal, 47.3 µM; in the assay with HOP-92 NSCLC it was 24.7 µM.
Regarding `O=C1C(Cl)C(c2ccc([N+](=O)[O-])cc2)N1n1cnc2ccccc2c1=O` (configuration not stated), the TGI in the assay with UACC-62 melanoma, in the assay with HT29 colon, with SK-MEL-2 melanoma, in the assay on A549 NSCLC, with MOLT-4 leukemia and in the assay with M14 melanoma was over 100 µM throughout. The TGI in the assay with IGROV1 ovarian and in the assay on ACHN renal was over 100 µM in each case.
As to `COc1ccc(OC)c(-c2cc(=O)c3cc4c(cc3[nH]2)OCO4)c1`, the TGI in the assay on UACC-62 melanoma is over 100 µM; in the assay on HT29 colon, over 100 µM; in the assay on SK-MEL-2 melanoma it was over 51.3 µM; in the assay on A549 NSCLC, over 71.3 µM; in the assay on MOLT-4 leukemia, over 84.9 µM; with M14 melanoma it was over 100 µM. Also, the TGI in the assay with IGROV1 ovarian was over 100 µM; in the assay with ACHN renal, over 80.2 µM; in the assay with HOP-92 NSCLC, 41.3 µM.
`O=c1cc(NNc2cccc(F)c2)[nH]c(=S)[nH]1`: the TGI in the assay on HT29 colon is over 100 µM; in the assay on A549 NSCLC it was over 100 µM; in the assay with M14 melanoma it was over 100 µM; in the assay on IGROV1 ovarian, over 100 µM; in the assay with ACHN renal, over 100 µM; in the assay on HOP-92 NSCLC, 99.5 µM.
Regarding `Nc1ccn(CCCC(c2ccccc2)P(=O)(O)O)c(=O)n1` (configuration not stated), the total growth inhibition concentration (TGI) in the assay on UACC-62 melanoma, with HT29 colon, in the assay with SK-MEL-2 melanoma, in the assay on A549 NSCLC, in the assay with M14 melanoma and with IGROV1 ovarian was over 100 µM throughout. Moreover, the TGI in the assay with ACHN renal and in the assay with HOP-92 NSCLC was over 100 µM each time.
